Source: patent US20250114313A1, “OLIGO-BENZAMIDE ANALOGS AND THEIR USE IN CANCER TREATMENT” (BOARD OF REGENTS, THE UNIVERSITY OF TEXAS SYSTEM, priority 2022, published 2025)
pIC50: −log10 of the molar value. Where two headings read alike, the source gives them in different places.

Legend:
[1] = tested on: ovarian cancer cell line xenograft (ES2); assay: Ovarian cancer cell line xenograft ES2; format: in vivo, mice; conditions: 10 mg/kg/day i.p.
Procedure: (§1) Animal Studies: All animal experiments were performed using UTHSA and UTSW IACUC approved protocols. For cell based xenograft tumor assays, TNBC cells (2×10^5-2×10^6) were mixed with an equal volume of matrigel and implanted in the mammary fat pads of 6-week-old female athymic nude mice as described^33. BALB/c mice were used for D2A1 syngeneic model. Once tumors reached measurable size, mice were divided into control (vehicle) and ERX-41 (10 mg/kg/oral) treatment groups. Mice bearing TNBC PDX tumors were purchased from Jackson laboratory (TM00089; TM00096; TM00098). TNBC PDX line UTPDX0001 establishment was earlier described^38. WHIM-20 ER+PDX model was purchased from Horizon Labs. OCa-PDX-38 was received from UTHSA ObGyn tissue procurement core. When tumors reached ˜750 mm^3 they were dissected into 2 mm^3 pieces and implanted into the mammary fat pads of 6 weeks old female SCID or NSG mice. When the tumor volume reached ˜200 mm^3, mice were randomized for treatment. The mice were monitored daily for adverse toxic effects and tumor volume was measured every 3-4 days using calipers. For establishing ES2 tumors, ES2/GFP/LUC cells were injected i.p. and tumors were measured twice a week using Xenogen in vivo imaging system. […] The mice were monitored daily for adverse toxic effects. […] The sections were scored by two independent evaluators blinded to the patient's clinical status.

[2] = tested on: ERα-positive breast cancer cells (MCF-7, ZR-75); assay: MTT cell viability, ERα-positive breast cancer cells; format: cell-based, Human; conditions: Homo sapiens, MCF-7 and ZR-75, read-out: anti-proliferative IC50
Procedure: (§2) Cell viability assays: Cells were seeded in 96-well plates (2×10^3 cells/well) one day before the treatment. Cells were treated with varying concentrations of ERX-41 or ERX-11 analogs for 3-6 days. Then effects of ERX-41 or ERX-11 analogs on cell viability were measured in triplicate or sextuplicate with multiple biological replicates using the WST-1 (Promega), MTT as previously described^33 or CellTiter-Glo 2.0 (Promega) assays.

[3] = tested on: LAL; assay: Biotinylated compound pull down of LAL from SUM-159 lysates; format: binding, Human
Procedure: The lysate was incubated with biotinylated-ERX-11 or biotinylated-ERX-41 overnight, followed by one-hour incubation with M-270 streptavidin Dynabeads. After four times of washes with lysis buffer, samples were eluted by boiling in 2× Laemmli sample buffer. Bound proteins were resolved in SDS-PAGE followed by western blotting.

[4] = Tolerability of daily dosing in mice (pilot MTD); format: in vivo; conditions: daily oral or intraperitoneal, up to 100 mg/kg
Procedure: as §1

[5] = tested on: D2A1 xenografts; assay: D2A1 syngeneic tumor model; format: in vivo, BALB/c mice; conditions: 10 mg/kg daily
Procedure: as §1

[6] = tested on: MDA-MB-231 TNBC tumor xenografts; assay: IHC of ER stress markers in TNBC xenografts after a single dose; format: in vivo, mice; conditions: single dose 10 mg/kg oral, within 24 h
Procedure: Immunohistochemistry: Immunohistochemical studies were performed as described previously.^7 For the immunohistochemical studies, tissue sections were blocked in background sniper (Biocare Medical, RS966L) followed by overnight incubation with primary antibodies anti-Ki-67 antibody (1:1000, GeneTex cat #GTX16667 RRID:AB_422351) (link), anti-CHOP antibody (1:2000, Sigma, Cat #HPA068416), anti-PERK (phospho T982) antibody (1:150, Abcam Cat #ab192591, RRID:AB_2728666) link)), anti-phospho-eIF2α (Ser51) (1:50, Cell signaling, cs3398) and subsequent secondary antibody incubation for 60 min at room temperature. Immunoreactivity was visualized by using the DAB substrate and counterstained with hematoxylin (Vector Lab, Inc.). Percent of Ki67 positive proliferating cells was calculated in five randomly selected high-power fields (×40).

[7] = tested on: ERα-positive cell lines; assay: CellTiter-Glo assay, ERα-positive cell lines; format: cell-based; conditions: Homo sapiens, read-out: anti-proliferative IC50, CellTiter-Glo
Procedure: as §2

[8] = tested on: TNBC cells (SUM-159, MDA-MB-231); assay: MTT cell viability, TNBC cells; format: cell-based, Human; conditions: for pIC50: MTT cell viability assays, read-out: antiproliferative IC50 against TNBC cells
Procedure: as §2

[9] = tested on: HSPA5, DDIT3, sXBP1 mRNA in HMEC cells; assay: RT-qPCR of ER stress / UPR genes, HMEC; format: cell-based, human; conditions: 1 μM

With `CC(C)COc1cc(C(=O)Nc2ccc(C(=O)N[C@H]3CC[C@H](C)CC3)cc2OCC(C)C)ccc1NC(=O)c1ccc([N+](=O)[O-])c(OCCO)c1` [ERX-41] the “activity against ES2 xenograft” value [1] was “has activity against”, the pIC50 [2] was 6.90 to 7.00 and the “pulldown of LIPA constructs” value ([3]; biotinylated ERX-41, WT, H274Y, ΔLXXLL, L242P) was “interaction between ERX-41 and proteins encoded by WT-LIPA and H274Y MT-LIPA but not ΔLXXLL MT-LIPA or L242P MT-LIPA”. The “binding to LAL in TNBC cells” value ([3]; biotinylated compound, streptavidin pull down) was “binds to LAL”, the tolerability [4] was “well tolerated by mice, with no clear evidence of toxicity” and the “growth of D2A1 xenografts” value [5] was “significantly reduce the growth”. For the same molecule, the “ER stress markers in tumor xenograft tissues” value [6] was “enhanced p-PERK, and p-eIF2α staining”, the pIC50 [7] was 6.90 to 7.00 and the pIC50 ([8]; Homo sapiens) was 6.90 to 7.00. The pIC50 [8] was 7.00, the “enhancement of potency in TNBC, ERX-41 vs ERX-11” value ([8]; from IC50>10 μM to 100 nM) was greater than 100 fold and the “upregulation of HSPA5, DDIT3, sXBP1 mRNA in HMEC” value [9] was “not in HMEC cells”.
